The subject of one series is GII protease. The experiment in a line: Cell-based FRET assay, GII WT protease. Further details: species or system norovirus GII.4 (DQ658413). Conditions: compared with GI and GV WT proteases, HEK293T cells. An excerpt:
(§1) The generation of plasmids expressing norovirus protease from GI.1 (M87661), GII.4 (DQ658413), or GV (DQ285629) norovirus and FRET assay constructs has been described previously ([18]). The plasmids carrying GI, GII, and GV proteases with the A105V, I109V, or A105V/I109V mutation were generated from the wild-type (WT) protease constructs described above by the QuikChange site-directed mutagenesis method. Mutant MNV genomes for reverse genetics were generated by two-step PCR mutagenesis of the WT MNV genome (pT7 MNV 3RZ) construct as described previously ([27]). The primers used for generation of the plasmids are listed in Tables S1 and S2 in the supplemental material.
(§2) The YFP/CFP ratio was used to determine FRET efficiency, as described previously ([18], [40]). Briefly, HEK293T cells were plated into black 96-well cell culture microplates (Greiner Bio-One) at a density of 5 × 10^4 cells/well in 100 μl of DMEM containing 10% fetal bovine serum with or without various concentrations of rupintrivir and then incubated for 4 h in a CO2 incubator at 37°C. […] The plates were then analyzed on a SpectraMax i3 instrument in fluorescence mode, with excitation set at 434 nm and the reading emissions set at 477 nm (CFP) and 527 nm (YFP). The background fluorescence from wells transfected with pcDNA3.1 was determined and subtracted. […]

In a further series the target is T1, GV WT protease (Norovirus, UniProt Q80J95).
T1 construct: plasmids expressing norovirus protease from GI.1 (M87661), GII.4 (DQ658413), or GV (DQ285629) norovirus; expressed in transfected cells; host or cells: HEK293T
T1 sequence (Q80J95 995-1177 limits assumed): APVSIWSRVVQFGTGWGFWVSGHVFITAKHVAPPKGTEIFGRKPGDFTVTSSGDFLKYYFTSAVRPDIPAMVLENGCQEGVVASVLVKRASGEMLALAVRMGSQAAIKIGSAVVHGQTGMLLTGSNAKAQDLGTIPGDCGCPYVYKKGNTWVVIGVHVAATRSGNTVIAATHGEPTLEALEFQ
The experiment in a line: Cell-based FRET assay, GV WT protease. Further details: species or system murine norovirus (MNV) GV (DQ285629). The note with it: HEK293T cells, GV NS1/2-NS3 FRET substrate.
Text: as §1, §2

The nature of another series: in vitro. It counts as cell-based. The note with it: human; HGT-NV cells, 72 h, resazurin; read-out: 50% cytotoxic concentration (CC50). As to the method:
The cell cytotoxicity of rupintrivir against HGT-NV cells was determined by a resazurin assay ([39]). Briefly, subconfluent HGT-NV cells in 96-well plates were treated with various concentrations of rupintrivir and then incubated for 72 h in a CO2 incubator at 37°C. After incubation, the supernatant was removed and the cells were washed with PBS, and then complete DMEM containing resazurin (0.1 mg/ml) was added to the cells. After 4 h of incubation, the optical density at 560 nm with a 620-nm optical density reference was determined by using a SpectraMax i3 instrument (Molecular Devices). The 50% cytotoxic concentration (CC50) values of rupintrivir were calculated using XLfit (version 5.3) software.
In general terms: Alamar Blue is a resazurin reagent that responds to reducing activity.

Series [1] has as its system HRV2 N165T/E3G or N165T/A103V. Also noted: method as in PMID 17908951. The note with it: serial passage of HRV2 for 62 days; cited from earlier work.
The test system of the next series is Norwalk virus replicon. The experiment in a line: Replicon clearance from HGT-NV cells over 12 days without G418 (qRT-PCR). Format: cell-based, Human norovirus (HuNoV) GI. The note with it: 12 days posttreatment, no G418. As to the method: To confirm the previously reported inhibitory effects of rupintrivir on human norovirus replication ([10]), we generated a human gastric adenocarcinoma cell line, HGT-NV, which stably maintained a Norwalk virus replicon encoding the neomycin resistance gene in place of the major capsid protein. The effects of rupintrivir on norovirus RNA replication in the replicon cells were evaluated by quantitative reverse transcription-PCR (qRT-PCR). […] To determine the concentration of rupintrivir sufficient to completely eliminate the norovirus replicon from HGT-NV cells, we treated the replicon cells with 2.5, 5, and 10 μM rupintrivir in the absence of G418 for up to 12 days. The replicon cells were passaged on days 3, 8, and 12, and the levels of replicon RNA were quantified by qRT-PCR. […] To further characterize the inhibitory effects of rupintrivir, we performed a colony formation assay with replicon cells treated with rupintrivir for 12 days. […]
The inhibitory effect of rupintrivir on HuNoV replication was assessed by quantification of the levels of GI NuNoV RNA and β-actin RNA as the reference gene. […] The real-time quantitative reverse transcription-PCR (qRT-PCR) assay was performed by using a One-Step Plus qRT-PCR kit according to the protocol of the manufacturer (Primer Design). […] Relative quantification was performed using the 2^−ΔΔCT threshold cycle (CT) method ([38]). […]

Regarding `CCOC(=O)/C=C/[C@H](C[C@@H]1CCNC1=O)NC(=O)[C@@H](CC(=O)[C@@H](NC(=O)c1cc(C)on1)C(C)C)Cc1ccc(F)cc1` [rupintrivir, Rupintrivir], the “susceptibility of the protease to rupintrivir” value in the series on GII protease is given as “substantially lower”. For the same molecule, at GV WT protease, it took 1 ± 0.1 µM to reach half-maximal inhibition (IC50). Moreover, the CC50 in “in vitro” is > 100 µM. Further, the fold reduced susceptibility in series [1] is given as 5 fold. Further, the “level of replicon RNA” value in the series with Norwalk virus replicon (5 μM) and with Norwalk virus replicon (10 μM) was “below the limit of quantification” each time.

In general, IC50 refers to the concentration that inhibits the measured activity by half.

Values taken from PMC5923142, “Selection and Characterization of Rupintrivir-Resistant Norwalk Virus Replicon Cells In Vitro” (Antimicrobial Agents and Chemotherapy, 2018).
